What was measured:
Format in all cases: biochemical
PAK4 = PAK4 (Homo sapiens, UniProt O96013); test: Z'Lyte fluorescence-based (FRET) PAK kinase assay, PAK4; conditions: 5 μM ATP
Experimental: (§1) A fluorescence-based assay format is used to determine IC50 values of test compounds in vitro. Purified PAK kinase is incubated with ATP, and a test compound at various concentrations and a substrate peptide containing two fluorophores. In a second step, the reaction mix is incubated with a site-specific protease that cleaves non-phosphorylated bat not phosphorylated substrate peptide, disrupting the FRET signal generated by the two fluorophores in the cleaved peptide (Z′Lyte™ Kinase assay platform; Life Technologies).
(§2) Reagents: 50 mM HEPES, pH 7.5; 0.01% BRIJ-35; 10 nM MgCl1; 1 mM EGTA, 2 uM substrate peptide Ser/Thr20 (proprietary Life Technologies Sequence), PAK enzyme [2.42-30.8 ng for PAK1, 0.29-6 ng for PAK2, 1.5-20 ng for PAK3 and 0.1-0.86 ng for PAK4; actual enzyme amounts depend on lot activity of the enzyme preparation]
(§3) Test compounds are dissolved in DMSO at various concentrations; the final DMSO concentration in the assay reaction is 1%.
(§4) ATP concentration at Kin apparent is used in the assay [50 ┌M ATP for PAK1 assay, 75 ┌M ATP for PAK2 assay, 100 μM ATP for PAK3 assay, 5 μM ATP for PAK4 assay] in a total assay volume of 10 μl. Assay reactions are incubated at room temperature for 1 hr. Following the kinase reaction, 5 μl of 1:256 dilution of development solution A (Life Technologies) is added and the reaction mix is incubated for an additional 1 hr at room temperature.
(§5) Plates are analyzed in a standard fluorescence plate reader (Tecan or equivalent) using an excitation wavelength of 400 nn and emission wavelengths of 445 nm and 520 nm.
(§6) Inhibition of kinase reaction is determined by emission ratio=emission@445 nm/emission@520 nm
as §1, with “non-phosphorylated but” for “non-phosphorylated bat”, “peptide (Z'Lyte™” for “peptide (Z′Lyte™”, “assay platform” for “assay platform;”
as §2, with “mM MgCl2;” for “nM MgCl1;”
as §4, with “at Km” for “at Kin”, “[50 μMATP” for “[50 ┌M ATP”, “75 µM” for “75 ┌M”, “[…]” for “10 μl.”, “kinase reaction.” for “kinase reaction,”, “[…]” for “5 μl”
(§7) Plates are analyzed in a standard fluorescence plate reader (Teem or equivalent) using an excitation wavelength of 400 nm and emission wavelengths of 445 nm and 520 nm.

PAK2 = PAK2 (Homo sapiens, UniProt Q13177); test: Z'Lyte fluorescence-based (FRET) PAK kinase assay, PAK2; conditions: Table 1 of Example 100; 75 μM ATP
Chain of PAK2 (Q13177 whole entry): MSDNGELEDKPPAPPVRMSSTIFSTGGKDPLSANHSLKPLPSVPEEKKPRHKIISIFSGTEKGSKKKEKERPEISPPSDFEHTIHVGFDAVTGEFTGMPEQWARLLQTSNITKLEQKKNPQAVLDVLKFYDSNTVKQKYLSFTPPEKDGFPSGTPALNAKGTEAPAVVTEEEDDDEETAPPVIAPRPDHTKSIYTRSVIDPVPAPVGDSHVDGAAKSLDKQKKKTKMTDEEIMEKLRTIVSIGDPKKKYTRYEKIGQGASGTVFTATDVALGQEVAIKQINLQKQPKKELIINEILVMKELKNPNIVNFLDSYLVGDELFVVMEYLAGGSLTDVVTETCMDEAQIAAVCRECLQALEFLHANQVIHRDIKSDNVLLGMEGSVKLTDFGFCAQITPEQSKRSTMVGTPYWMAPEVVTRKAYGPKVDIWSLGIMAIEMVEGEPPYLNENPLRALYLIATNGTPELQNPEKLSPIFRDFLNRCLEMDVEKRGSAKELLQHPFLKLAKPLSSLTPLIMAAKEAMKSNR
Experimental: as §1, §2, §3, §4, §5, §6
as §1, with “non-phosphorylated but” for “non-phosphorylated bat”, “peptide (Z'Lyte™” for “peptide (Z′Lyte™”, “assay platform” for “assay platform;”
as §2, with “mM MgCl2;” for “nM MgCl1;”
as §4, with “at Km” for “at Kin”, “[50 μMATP” for “[50 ┌M ATP”, “75 µM” for “75 ┌M”, “[…]” for “10 μl.”, “kinase reaction.” for “kinase reaction,”, “[…]” for “5 μl”
as §7

PAK1 = PAK1 (Homo sapiens, UniProt Q13153); test: Z'Lyte fluorescence-based (FRET) PAK kinase assay, PAK1; conditions: 50 μM ATP
Chain of PAK1 (Q13153 whole entry): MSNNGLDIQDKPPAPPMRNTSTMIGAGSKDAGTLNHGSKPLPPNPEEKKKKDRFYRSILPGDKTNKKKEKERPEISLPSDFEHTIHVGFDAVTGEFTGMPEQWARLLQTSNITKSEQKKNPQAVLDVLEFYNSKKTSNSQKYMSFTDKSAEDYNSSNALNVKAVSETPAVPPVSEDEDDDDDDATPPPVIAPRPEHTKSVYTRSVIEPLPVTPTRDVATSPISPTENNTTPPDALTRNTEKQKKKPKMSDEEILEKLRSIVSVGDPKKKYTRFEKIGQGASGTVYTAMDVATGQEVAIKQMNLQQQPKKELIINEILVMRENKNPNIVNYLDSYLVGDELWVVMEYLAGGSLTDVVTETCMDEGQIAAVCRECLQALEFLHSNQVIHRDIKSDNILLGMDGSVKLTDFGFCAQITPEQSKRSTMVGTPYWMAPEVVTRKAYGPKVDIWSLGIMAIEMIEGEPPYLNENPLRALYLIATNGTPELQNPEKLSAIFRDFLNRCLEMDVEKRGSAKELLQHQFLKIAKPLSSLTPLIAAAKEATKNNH
Experimental: as §1, §2, §3, §4, §5, §6
as §1, with “non-phosphorylated but” for “non-phosphorylated bat”, “peptide (Z'Lyte™” for “peptide (Z′Lyte™”, “assay platform” for “assay platform;”
as §2, with “mM MgCl2;” for “nM MgCl1;”
as §4, with “at Km” for “at Kin”, “[50 μMATP” for “[50 ┌M ATP”, “75 µM” for “75 ┌M”, “[…]” for “10 μl.”, “kinase reaction.” for “kinase reaction,”, “[…]” for “5 μl”
as §7

[1] = Table 1 of Example 29 (own compound numbering)

Chain of PAK4 (O96013 whole entry): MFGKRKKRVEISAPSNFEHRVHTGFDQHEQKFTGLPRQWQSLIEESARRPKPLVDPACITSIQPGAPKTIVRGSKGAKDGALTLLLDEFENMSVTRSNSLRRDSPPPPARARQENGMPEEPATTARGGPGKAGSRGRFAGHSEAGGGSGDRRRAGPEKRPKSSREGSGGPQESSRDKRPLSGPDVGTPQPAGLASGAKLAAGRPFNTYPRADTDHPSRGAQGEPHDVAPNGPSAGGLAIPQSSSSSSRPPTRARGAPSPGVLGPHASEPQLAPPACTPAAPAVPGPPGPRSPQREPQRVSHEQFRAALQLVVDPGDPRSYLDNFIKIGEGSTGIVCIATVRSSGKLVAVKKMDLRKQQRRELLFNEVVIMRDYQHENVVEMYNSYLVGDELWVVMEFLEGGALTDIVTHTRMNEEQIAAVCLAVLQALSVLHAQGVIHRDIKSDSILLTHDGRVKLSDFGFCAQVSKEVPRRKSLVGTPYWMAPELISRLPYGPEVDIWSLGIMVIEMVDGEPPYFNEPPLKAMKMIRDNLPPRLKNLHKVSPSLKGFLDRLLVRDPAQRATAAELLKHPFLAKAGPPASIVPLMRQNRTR

IC50 (PAK4; Table 1 of Example 100) [µM]	IC50 (PAK2) [µM]	IC50 (PAK1; Table 1 of Example 100) [µM]	IC50 (PAK4; [1]) [µM]	IC50 (PAK1; [1]) [µM]	Structure (SMILES)
–	–	–	> 10	> 10	CN(C)CC(c1ccccc1)n1c(=O)ccc2cnc(Nc3ccc(N4CCOCC4)cc3)nc21 (centres unmarked) [compound 72]
–	–	–	< 1	< 1	CN1CCN(c2ccc(Nc3ncc4ccc(=O)n(C5Cc6ccccc6C5)c4n3)cc2)CC1 [compound 73]
–	–	–	< 1	< 1	CN1CCN(c2ccc(Nc3ncc4ccc(=O)n(C5CCc6ccccc6C5)c4n3)cc2)CC1 (centres unmarked) [compound 74]
–	–	–	> 10	> 10	CN(C)CC(c1ccccc1)n1c(=O)ccc2cnc(Nc3ccc(N4CCN(C)CC4)cc3)nc21 (centres unmarked) [compound 75]
–	–	–	< 1	< 1	O=c1ccc2cnc(Nc3ccc(N4CCNCC4)c(F)c3)nc2n1C1Cc2ccccc2C1 [compound 77]
–	–	–	< 1	< 1	O=c1ccc2cnc(Nc3ccc(N4CCNCC4)c(F)c3)nc2n1C1CCc2ccccc2C1 (centres unmarked) [compound 78]
–	–	–	> 10	1 to 10	CN1CCN(c2ccc(Nc3ncc4ccc(=O)n(Cc5ccc(F)cc5)c4n3)cc2)CC1 [compound 82]
–	–	–	> 10	> 10	COc1ccc(Cn2c(=O)ccc3cnc(Nc4ccc(N5CCN(C)CC5)cc4)nc32)cc1 [compound 83]
–	–	–	> 10	1 to 10	CN1CCN(c2ccc(Nc3ncc4ccc(=O)n(Cc5ccc(Cl)cc5)c4n3)cc2)CC1 [compound 84]
–	–	–	1 to 10	< 1	CN1CCN(c2ccc(Nc3ncc4ccc(=O)n(Cc5ccccc5Cl)c4n3)cc2)CC1 [compound 85]
–	–	–	1 to 10	< 1	COc1ccccc1Cn1c(=O)ccc2cnc(Nc3ccc(N4CCN(C)CC4)cc3)nc21 [compound 88]
–	–	–	1 to 10	1 to 10	CN1CCN(c2ccc(Nc3ncc4ccc(=O)n(Cc5ccccc5F)c4n3)cc2)CC1 [compound 89]
–	–	–	1 to 10	1 to 10	CN1CCN(c2ccc(Nc3ncc4ccc(=O)n(Cc5ccccn5)c4n3)cc2)CC1 [compound 90]
–	–	–	> 10	1 to 10	CN1CCN(c2ccc(Nc3ncc4ccc(=O)n(Cc5ccncc5)c4n3)cc2)CC1 [compound 91]
–	–	–	> 10	1 to 10	CN1CCN(c2ccc(Nc3ncc4ccc(=O)n(Cc5cccnc5)c4n3)cc2)CC1 [compound 92]
–	–	–	1 to 10	–	Cc1ccccc1Cn1c(=O)ccc2cnc(Nc3ccc(N4CCN(C)CC4)cc3)nc21 [compound 93]
–	–	–	1 to 10	< 1	CN1CCN(c2ccc(Nc3ncc4ccc(=O)n(Cc5ccccc5C#N)c4n3)cc2)CC1 [compound 94]
–	–	–	1 to 10	< 1	CN1CCN(c2ccc(Nc3ncc4ccc(=O)n(Cc5ccccc5OC(F)(F)F)c4n3)cc2)CC1 [compound 95]
–	–	–	< 1	< 1	CN1CCN(c2ccc(Nc3ncc4ccc(=O)n(Cc5ccccc5C(F)(F)F)c4n3)cc2)CC1 [compound 96]
–	–	–	< 1	< 1	CN1CCN(c2ccc(Nc3ncc4ccc(=O)n(Cc5ccccc5OC(F)F)c4n3)cc2)CC1 [compound 98]
–	–	–	1 to 10	1 to 10	Cc1cc(F)ccc1Cn1c(=O)ccc2cnc(Nc3ccc(N4CCN(C)CC4)cc3)nc21 [compound 99]
–	–	–	1 to 10	1 to 10	Cc1ccc(C)c(Cn2c(=O)ccc3cnc(Nc4ccc(N5CCN(C)CC5)cc4)nc32)c1 [compound 100]

The remaining lines, values behind:

Structure (SMILES)	IC50 (PAK4; Table 1 of Example 100) [µM]	IC50 (PAK2) [µM]	IC50 (PAK1; Table 1 of Example 100) [µM]	IC50 (PAK4; [1]) [µM]	IC50 (PAK1; [1]) [µM]
O=c1ccc2cnc(Nc3ccc(N4CCOCC4)cc3)nc2n1C1CCCC1 [Compound 2]	1 to 10	> 10	> 10	–	–
CN(C)c1ccc(Nc2ncc3ccc(=O)n(C4CCCC4)c3n2)cc1 [Compound 3]	1 to 10	> 10	> 10	–	–
CN(C)CCNc1ccc(Nc2ncc3ccc(=O)n(C4CCCC4)c3n2)cc1 [Compound 4]	1 to 10	1 to 10	1 to 10	–	–
CN1CCN(c2ccc(Nc3ncc4ccc(=O)n(Cc5ccccc5)c4n3)cc2)CC1 [Compound 26]	–	1 to 10	–	–	–
CN1CCN(c2ccc(Nc3ncc4ccc(=O)n(Cc5cccc(F)c5)c4n3)cc2)CC1 [Compound 27]	1 to 10	1 to 10	1 to 10	–	–
CN1CCN(c2ccc(Nc3ncc4ccc(=O)n(Cc5ccc(F)cc5)c4n3)cc2)CC1 [Compound 28]	> 10	> 10	1 to 10	–	–
COc1ccc(Cn2c(=O)ccc3cnc(Nc4ccc(N5CCN(C)CC5)cc4)nc32)cc1 [Compound 29]	> 10	> 10	> 10	–	–
CN1CCN(c2ccc(Nc3ncc4ccc(=O)n(Cc5ccc(Cl)cc5)c4n3)cc2)CC1 [Compound 30]	> 10	> 10	1 to 10	–	–
CN1CCN(c2ccc(Nc3ncc4ccc(=O)n(Cc5ccccc5Cl)c4n3)cc2)CC1 [Compound 31]	1 to 10	< 1	< 1	–	–
COc1cccc(Cn2c(=O)ccc3cnc(Nc4ccc(N5CCN(C)CC5)cc4)nc32)c1 [Compound 33]	> 10	> 10	1 to 10	–	–
COc1ccccc1Cn1c(=O)ccc2cnc(Nc3ccc(N4CCN(C)CC4)cc3)nc21 [Compound 34]	1 to 10	1 to 10	< 1	–	–
CN1CCN(c2ccc(Nc3ncc4ccc(=O)n(Cc5ccccc5F)c4n3)cc2)CC1 [Compound 35]	1 to 10	1 to 10	1 to 10	–	–
CN1CCN(c2ccc(Nc3ncc4ccc(=O)n(Cc5ccccn5)c4n3)cc2)CC1 [Compound 36]	1 to 10	> 10	1 to 10	–	–
CN1CCN(c2ccc(Nc3ncc4ccc(=O)n(Cc5ccncc5)c4n3)cc2)CC1 [Compound 37]	> 10	> 10	1 to 10	–	–
CN1CCN(c2ccc(Nc3ncc4ccc(=O)n(Cc5cccnc5)c4n3)cc2)CC1 [Compound 38]	> 10	> 10	1 to 10	–	–
CN1CCN(c2ccc(Nc3ncc4ccc(=O)n(C5CCCC5)c4n3)cc2)CC1 [compound 57]	–	–	–	1 to 10	< 1
O=c1ccc2cnc(Nc3ccc(N4CCOCC4)cc3)nc2n1C1CCCC1 [compound 58]	–	–	–	1 to 10	> 10
CN(C)c1ccc(Nc2ncc3ccc(=O)n(C4CCCC4)c3n2)cc1 [compound 59]	–	–	–	1 to 10	> 10
CN(C)CCNc1ccc(Nc2ncc3ccc(=O)n(C4CCCC4)c3n2)cc1 [compound 60]	–	–	–	1 to 10	1 to 10
CN1CCN(c2ccc(Nc3ncc4ccc(=O)n(C5CCc6ccccc65)c4n3)cc2)CC1 (centres unmarked) [compound 62]	–	–	–	1 to 10	< 1
O=c1ccc2cnc(Nc3ccc(NC4CCCNC4)cc3)nc2n1Cc1ccccc1C(F)(F)F (centres unmarked) [compound 63]	–	–	–	< 1	< 1
O=c1ccc2cnc(Nc3ccc(NC4CCNCC4)cc3)nc2n1Cc1ccccc1C(F)(F)F [compound 64]	–	–	–	< 1	< 1
CN1CCN(c2ccc(Nc3ncc4ccc(=O)n([C@@H]5CCCc6ccccc65)c4n3)cc2)CC1 [compound 66]	–	–	–	1 to 10	1 to 10
CN1CCN(c2ccc(Nc3ncc4ccc(=O)n(C5CCCc6ccccc65)c4n3)cc2)CC1 (centres unmarked) [compound 67]	–	–	–	1 to 10	< 1
O=c1ccc2cnc(Nc3ccc(OC4CCNCC4)cc3)nc2n1Cc1ccccc1C(F)(F)F [compound 68]	–	–	–	< 1	< 1
O=c1ccc2cnc(Nc3ccc(OC4CCCNC4)cc3)nc2n1Cc1ccccc1C(F)(F)F (centres unmarked) [compound 70]	–	–	–	< 1	< 1
CN1CCN(c2ccc(Nc3ncc4ccc(=O)n(C5CCOc6ccccc65)c4n3)cc2)CC1 (centres unmarked) [compound 71]	–	–	–	1 to 10	1 to 10

Reference: patent US20120270844A1, “METHODS FOR TREATING ALZHEIMER'S DISEASE” (aFRAXis, Inc., priority 2009, published 2012)
